In article PMC12048343, “Discovery of a small molecule secreted clusterin enhancer that improves memory in Alzheimer’s disease mice” (npj Drug Discovery, 2025):

What was measured:
U-87 MG cells = experiment: Cytotoxicity, MultiTox-Fluor (CNS gliotoxicity); settings: U-87 MG, up to 50 µM
Description: Cell viability and toxicity were simultaneously assessed using the MultiTox-Fluor Multiplex Cytotoxicity Assay (Cat# PRG9200, Fisher Scientific) according to the manufacturer’s protocol.

SH-SY5Y cells = experiment: Cytotoxicity, MultiTox-Fluor (neurotoxicity); type: cell-based, human; settings: up to 50 µM
HEPG2 cells = experiment: Cytotoxicity, MultiTox-Fluor (hepatotoxicity); type: cell-based; settings: HEPG2, up to 50 µM
[1] = tested on: ApoE4TR-5XFAD murine model of AD; experiment: Subchronic two-week oral study in ApoE4TR-5XFAD mice (hippocampus biomarkers, proteomics); type: in vivo, mouse; settings: oral 15 mg/kg BID, two weeks, vs vehicle
Method: Brain tissue was homogenized and diluted to a protein concentration of 50 ng/mL. The Mouse Clusterin ELISA Kit (Cat#ab199079, Abcam) was performed according to the manufacturer’s protocol.
(§1) Additional assays: The Aβ1-42 ELISA assay was performed on hippocampus brain homogenate according to the manufacturer’s protocol (Fisher KHB3441). Humanin in cell culture lysate was quantify by ELISA assay, according to the manufacturer’s protocol (MyBioSourc Cat# MBS7607247). SirT1 in cell culture lysate was quantify using AlphaLISA. Cell lysate (2 μL) was added to a 384-well proxy plate preloaded with 2 µL anti-SiRT1 antibody mixture (ABCAM catalog AB110304, biotinylated (10 nM) and ABCAM catalog AB104833, acceptor bead conjugated (50 µg/mL, Cat#6772001, Perkin Elmer)) was added and incubated at room temperature for 1 hour. AlphaScreen Streptavidin Donor beads (2 µL, Cat#6760002S, Perkin Elmer) were added, incubated for an additional 30 min in the dark, and the plate was read in an Envision plate reader.
All procedures were performed in accordance with protocols approved by the UCLA Institutional Animal Care and Use Committee (IACUC) and guidelines of the NIH. Mouse strains used were C57BL/6 J (Black 6, Jackson Laboratory; JAX stock #000564). All non-AD mice were 4 to 5 mo old at the time of the experiments. […]

3xTg-AD mice = experiment: Barnes maze assessment of spatial learning and memory; type: in vivo, mouse; settings: oral 15 mg/kg BID, 6 weeks; significant on Day 3 of training and in the 48-hour probe
Method: Male and female 3-month-old mice were administered DDL-357 via pipette feeding at a dose of 15 mg/kg BID (30 mg/kg/day). Mice were weighed before the first dose for the calculation of volume to be administered. The formulation used comprised DDL-357 as a 15 mg/mL solution dissolved in a strawberry flavored solution (propylene glycol/water/strawberry syrup, 2/1/1, v/v/v). ApoE4TR-5XFAD mice (7 mice, 3 females & 4 males-vehicle; 7 mice, 4females and 3 males – DDL357) were dosed for two weeks. 3xTg-AD mice (13 mice, 5 females & 8 males-vehicle; 13 mice, 4 females and 9 males- DDL357) were dosed for six weeks before entering Barnes Maze testing. At end of study, mice brain tissue and plasma were collected after euthanasia and perfusion. […]
Barnes Maze testing was performed as describe by Attar et al. Briefly, in a room with visual cues on the walls, mice are introduced in a circular maze containing 20 holes where 19 holes are closed during training and all 20 holes are closed during the probe trials. […] During the probe days, the target hole is closed, and spatial memory of the mouse is determined during a 90 s probe trial. […] Over the course of the training and probe trials, the software-calculated parameters included, but were not limited to, total distance traveled, speed, number of holes visited, latency to visiting the target/escape hole, percent time spent in the four quadrants of the maze.

SH-SY5Y neuronal cells = experiment: Oxygen consumption rate in SH-SY5Y cells; type: cell-based, human; settings: 24 h, 8, 40 and 200 nM, dose-dependent
[2] = tested on: humanin (HN) expression in SH-SY5Y cells; experiment: Humanin ELISA in SH-SY5Y cell lysate; type: cell-based, human; settings: 200 nM, 24 h
Method: as §1

Question: Which results are given for `Cc1sc2c(c1C)C(c1ccc(Cl)cc1)=N[C@@H](CC(=O)OC1CC1)c1nnc(C)n1-2` [DDL-357]?
Answer: Ctox (U-87 MG cells): ≥ 50 µM; Ctox (SH-SY5Y cells): ≥ 50 µM; Ctox (HEPG2 cells): ≥ 50 µM; Aβ1-42 in brain [1]: the difference did not reach significance; sCLU levels in the hippocampus [1]: significant increase; Barnes maze performance (latency to escape hole) (3xTg-AD mice): performed better overall during both the training and probe phases; oxygen consumption rate (SH-SY5Y neuronal cells): increased the oxygen consumption rate; humanin (HN) expression [2]: significantly increased expression
